Values of other authors as cited in article PMC10035389, “Safety, Tolerability, and Pharmacokinetics of TAK-931, a Cell Division Cycle 7 Inhibitor, in Patients with Advanced Solid Tumors: A Phase I First-in-Human Study” (Cancer Research Communications, 2022).

Tested on: patients with advanced solid tumors
Details: human, in vivo; cited from earlier work

C[C@@]1(c2ncncc2F)NC(=O)c2cc(-c3cn[nH]c3)ccc21 [LY3143921]
Rate of drug-related orthostatic hypotension: 50%
